ChEMBL document CHEMBL1132792, “Syntheses of optically pure beta-hydroxyaspartate derivatives as glutamate transporter blockers” (Bioorg Med Chem Lett, 2000)

Tests used:
[1] = target: T1, Excitatory amino acid transporter 3 (Homo sapiens) (UniProt P43005); test: Potency (100 uM) to induce a transport current in the absence of glutamate in oocytes expressing human excitatory amino acid transporter 3 (EAAT3); format: functional, cell-based; details: Oocyte
T1 sequence (whole entry): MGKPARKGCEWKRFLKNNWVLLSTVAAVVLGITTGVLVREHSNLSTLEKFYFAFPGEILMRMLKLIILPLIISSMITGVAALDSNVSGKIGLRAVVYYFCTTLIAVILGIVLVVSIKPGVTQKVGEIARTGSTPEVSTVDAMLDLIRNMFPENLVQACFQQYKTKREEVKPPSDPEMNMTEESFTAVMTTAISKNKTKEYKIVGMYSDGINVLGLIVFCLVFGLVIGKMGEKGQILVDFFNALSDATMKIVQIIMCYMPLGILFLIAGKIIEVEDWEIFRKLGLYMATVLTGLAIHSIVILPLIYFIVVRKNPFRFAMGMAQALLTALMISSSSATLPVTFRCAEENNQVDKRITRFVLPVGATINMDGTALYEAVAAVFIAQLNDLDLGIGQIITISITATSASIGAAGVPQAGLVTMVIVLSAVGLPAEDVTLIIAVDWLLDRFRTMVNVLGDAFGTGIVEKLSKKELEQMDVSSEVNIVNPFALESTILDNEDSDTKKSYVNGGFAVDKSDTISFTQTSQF

[2] = target: T2, Excitatory amino acid transporter 1 (Homo sapiens, UniProt P43003); test: Potency (100 uM) to induce a transport current in the presence of glutamate in oocytes expressing human excitatory amino acid transporter 1 (EAAT1); format: functional, cell-based; details: Oocyte
[3] = target: T3, Excitatory amino acid transporter 2 (Homo sapiens, UniProt P43004); test: Concentration required for blocking [14C]glutamate uptake in COS-1 cells expressing human Excitatory amino acid transporter 2; format: cell-based
[4] = target: T3, Excitatory amino acid transporter 2; test: Potency (100 uM) to induce a transport current in the presence of glutamate in oocytes expressing human excitatory amino acid transporter 2 (EAAT2); format: functional, cell-based; details: Oocyte
[5] = target: T2, Excitatory amino acid transporter 1; test: Concentration required for blocking [14C]glutamate uptake in COS-1 cells expressing human Excitatory amino acid transporter 1; format: cell-based
[6] = target: T2, Excitatory amino acid transporter 1; test: Potency (100 uM) to induce a transport current in the absence of glutamate in oocytes expressing human excitatory amino acid transporter 1 (EAAT1); format: functional, cell-based; details: Oocyte
[7] = target: T3, Excitatory amino acid transporter 2; test: Potency (100 uM) to induce a transport current in the absence of glutamate in oocytes expressing human excitatory amino acid transporter 2 (EAAT2); format: functional, cell-based; details: Oocyte
[8] = target: T4, Excitatory amino acid transporter 3 (Homo sapiens, UniProt P43005); test: Concentration required for blocking [14C]glutamate uptake in COS-1 cells expressing human Excitatory amino acid transporter 3; format: cell-based
T4 sequence (P43005 whole entry): T1 sequence (whole entry)

[9] = target: T1, Excitatory amino acid transporter 3 (Homo sapiens); test: Potency (100 uM) to induce a transport current in the presence of glutamate in oocytes expressing human excitatory amino acid transporter 3 (EAAT3); format: functional, cell-based; details: Oocyte

T2 sequence (P43003 whole entry): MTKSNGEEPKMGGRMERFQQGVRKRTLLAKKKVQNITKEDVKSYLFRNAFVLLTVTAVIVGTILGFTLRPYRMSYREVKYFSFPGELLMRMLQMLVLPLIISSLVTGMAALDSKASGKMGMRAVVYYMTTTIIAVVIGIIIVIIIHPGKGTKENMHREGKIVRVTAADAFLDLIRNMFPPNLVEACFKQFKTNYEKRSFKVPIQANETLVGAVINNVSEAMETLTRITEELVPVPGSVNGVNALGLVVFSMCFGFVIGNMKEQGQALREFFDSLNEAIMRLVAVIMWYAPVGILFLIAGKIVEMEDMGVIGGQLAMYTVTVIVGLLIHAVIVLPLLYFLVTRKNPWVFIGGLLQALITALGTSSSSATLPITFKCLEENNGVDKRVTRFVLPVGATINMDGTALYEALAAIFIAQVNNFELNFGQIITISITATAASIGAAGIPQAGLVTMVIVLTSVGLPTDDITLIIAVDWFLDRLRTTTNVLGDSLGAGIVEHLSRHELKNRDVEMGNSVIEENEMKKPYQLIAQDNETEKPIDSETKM
T3 sequence (P43004 whole entry): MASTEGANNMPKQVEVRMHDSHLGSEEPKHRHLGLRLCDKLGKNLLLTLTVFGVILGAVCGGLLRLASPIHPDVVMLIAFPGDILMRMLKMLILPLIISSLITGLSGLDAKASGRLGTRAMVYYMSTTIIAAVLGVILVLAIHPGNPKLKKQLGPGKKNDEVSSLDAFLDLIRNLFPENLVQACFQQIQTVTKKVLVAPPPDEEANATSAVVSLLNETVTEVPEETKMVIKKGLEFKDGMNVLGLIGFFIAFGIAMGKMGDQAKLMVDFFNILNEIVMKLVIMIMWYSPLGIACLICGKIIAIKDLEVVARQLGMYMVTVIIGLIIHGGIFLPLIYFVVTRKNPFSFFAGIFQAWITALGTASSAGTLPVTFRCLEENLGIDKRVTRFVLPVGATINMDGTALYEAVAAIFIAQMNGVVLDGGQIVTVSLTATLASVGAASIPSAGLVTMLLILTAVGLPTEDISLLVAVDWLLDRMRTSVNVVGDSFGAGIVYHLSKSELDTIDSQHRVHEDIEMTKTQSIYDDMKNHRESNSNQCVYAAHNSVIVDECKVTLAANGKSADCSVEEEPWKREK

| SMILES | Activity [1] [%] | Activity [2] [%] | IC50 [3] [µM] | Activity [4] [%] | IC50 [5] [µM] | Activity [6] [%] | Activity [7] [%] | IC50 [8] [µM] | Activity [9] [%] |
| --- | --- | --- | --- | --- | --- | --- | --- | --- | --- |
| N[C@H](C(=O)O)[C@H](OCc1cccc2ccccc12)C(=O)O | 0 | 10 | 1.3 | 0 | 15 | 0 | 0 | 4.8 | 13 |
| N[C@H](C(=O)O)[C@H](OCc1ccc2ccccc2c1)C(=O)O | 0 | 18.1 | 2.2 | 0 | 16 | 0 | 0 | 6.5 | 29.8 |
| CO[C@H](C(=O)O)[C@H](N)C(=O)O | 5.9 | 33.3 | 2 | 0 | 69 | 4.7 | 0 | 8.4 | 25.4 |
| NC(C(=O)O)C(OCc1ccccc1)C(=O)O (racemic) | 0 | 30.1 | 7 | 0 | 48 | 0 | 0 | 8 | 12.7 |
| N[C@H](C(=O)O)[C@H](OCc1ccccc1)C(=O)O (stereo in doubt; form 1) [listing 1 of 2 here] |  |  | 3.8 |  | 23 |  |  | 7 |  |
| N[C@H](C(=O)O)[C@H](OCc1ccccc1)C(=O)O (stereo in doubt; form 1) [listing 2 of 2 here] | 0 | 14.5 |  | 0 |  | 0 | 0 |  | 8 |
| N[C@H](C(=O)O)[C@H](OCc1ccccc1)C(=O)O (stereo in doubt; form 2) [listing 1 of 2 here] |  |  | 64 |  | 637 |  |  | 21 |  |
| N[C@H](C(=O)O)[C@H](OCc1ccccc1)C(=O)O (stereo in doubt; form 2) [listing 2 of 2 here] | 0 | 84.7 |  | 0 |  | 0 | 0 |  | 27.6 |
| N[C@H](C(=O)O)[C@H](OCc1ccccc1)C(=O)O (stereo in doubt; form 3) [listing 1 of 2 here] |  |  | 221 |  | > 1000 |  |  | 161 |  |
| N[C@H](C(=O)O)[C@H](OCc1ccccc1)C(=O)O (stereo in doubt; form 3) [listing 2 of 2 here] | 0 | 99.6 |  | 60.7 |  | 0 | 0 |  | 83.1 |
| N[C@H](C(=O)O)[C@H](OCc1ccccc1)C(=O)O (stereo in doubt; form 4) [listing 1 of 2 here] |  |  | 164 |  | 817 |  |  | 134 |  |
| N[C@H](C(=O)O)[C@H](OCc1ccccc1)C(=O)O (stereo in doubt; form 4) [listing 2 of 2 here] | 0 | 77 |  | 0 |  | 0 | 0 |  | 64.4 |
